Reference: patent publication US20250092353A1, “COMMENSAL FUNGUS AND USES THEREOF” (YEDA RESEARCH AND DEVELOPMENT CO. LTD., priority 2022, published 2025)

Key:
[1] = Biolog Phenotype MicroArrays for chemical sensitivity (PM21-PM25); format: cell-based; settings: compared to C. albicans; normalized AUC of growth
Method: (§1) FIGS. 2A-2F include micrographs, graphs, a plot, and a curve showing in vitro culture characteristics of K. weizmannii. (2A) Representative images of C. albicans and K. weizmannii in liquid media in presence of filament-inducing conditions, n=3 independent experiments. (2B) A graph showing largest differences in growth between K. weizmannii and C. albicans with different carbon sources, based on a z-score > or <2. Differences were calculated using the normalized area under the curve (AUC) of K. weizmannii and C. albicans. Normalization of the AUC are based on the growth of both species with glucose. Size of data points corresponds to the normalized AUC of K. weizmannii with the corresponding carbon source. All measurements were done using the Biolog Phenotype MicroArrays in biological triplicates. […] The data points are color-coded according to the different types of carbon sources. (2C) A graph showing the largest differences in growth between K. weizmannii and C. albicans with different nitrogen sources, based on a z-score greater than or less than 2. Differences were calculated using AUC of K. weizmannii and C. albicans and normalized based on the growth of both species with glutamine. […] GFP expressing C. albicans was detected by flowcytometry to discriminate between fungi, n=2 independent experiments.

C. albicans = assay: In vitro co-culture assay of C. albicans and K. weizmannii; format: cell-based, Candida albicans; settings: in vitro coculture, flow cytometry
Method: as §1

serum IgA and IgG = assay: In vitro serum antibody binding assay (sera of colonized mice); format: in vivo; settings: single-colonized animals
Method: Blood was collected from mice at rested at RT for 1 hour, followed by centrifugation 2,000 g 10 min. Serum supernatant was collected and froze at −80° C. until use. Cultured fungi were normalized to OD600=1 in PBS supplemented with 1% bovine serum albumin and 0.01% sodium azide (PBA solution). Cultured fungi were incubated with 20× diluted mouse serum on ice for 45 minutes, then washed twice with PBA, followed by staining with anti-mouse IgA and IgG. Samples were recorded on Cytek Aurora and analyzed in FlowJo (Treestar). Antibody binding intensity was normalized to the negative controls. Isotype control, non-stained and no-serum were used as negative controls.

C2BBe1 cells = assay: Epithelial cell co-culture cytotoxicity (LDH assay); format: cell-based
Method: Quantification of cytotoxicity (LDH assay). Differentiated C2BBe1 cells in 96-well plates were infected for a defined time period with 10^4 C. albicans, S. cerevisiae and K. weizmannii. cells/well. After coincubation, epithelial damage was quantified by measuring LDH release using a cytotoxicity detection kit (Roche) according to the manufacturer's instructions.

[2] = Fungal-mediated pathology in cortisone 21-acetate immunosuppressed colonized mice; format: in vivo; settings: cortisone 21-acetate 225 mg/kg s.c. every other day
Method: Stably fungal-colonized mice were 5×s.c injected with 225 mg kg-1 with cortisone 21-acetate, following the scheme of injection every other day as described previously (Solis and Filler, 2012). Mice were monitored for weight loss. Following sacrifice, organs and feces were collected for histological examination, flow cytometry and fungal cultivations). If the weight dropped […], mice were sacrificed according to IACUC protocol.
Mice were euthanized and intestines, kidneys and tongue were excised and fixed overnight in 4% paraformaldehyde at 4° C. Paraffin embedding and sectioning was performed by the institutional histology unit. For immunohistochemistry of gut samples, slides were deparaffinized by 2 washes of Xylene followed by 100%, 96%, 70% EtOH and three washes with PBS. Slides were incubated for 30 minutes in 1% hydrogen peroxide in PBS at room temperature in the dark. After washing three times in PBS, slides were boiled for 10 minutes in Citric acid buffer pH 6.0 (10 mM citric acid and 0.05% Tween-20 in DDW), then washed with PBS three times. […] For histopathology of typical tongue or kidney fungal lesions in the mouse model of immunosuppression, paraffin sections were stained with periodic acid-Schiff (PAS) or H&E and slides were captured using a Panoramic SCAN II (3DHISTECH) and analyzed using CaseViewer software (3DHISTECH).

## Kazachstania weizmannii [K. weizmannii]
[1]
  resistance to chemical inhibitors, azoles: relative resistance to propriconazole and fucinazole
  sensitivity to chemical inhibitors, chlorides and bromides: more sensitive to chlorides and bromides
C. albicans
  growth interference in co-culture with C. albicans: grew together without interference
Serum IgA and IgG
  anti-fungal serum IgA and IgG titers: induced robust anti-fungal serum IgA and IgG titers in most animals
C2BBe1 cells; co-infection with K. weizmannii and C. albicans
  protection from C. albicans-induced EC damage: did not prevent EC damage
C2BBe1 cells; single fungus co-culture
  EC damage / viability (LDH release): did not affect EC viability
[2]
  weight loss and fungal spread: neither weight loss nor evidence of fungal spread
